Data: patent US10660900B2 (priority 2014, dated 2020)
“And” between values parts separate entries of the source, which are not always exact repeats. Equal values may be shown once. Read-outs that look alike come from different tables or passages of the source.

What was measured:
[1] = QT interval in opioid-dependent patients; type: in vivo, human; conditions: 60, 120, 180 mg; first 24 hours; correlated with serum concentration
Description: Patients' QT intervals were evaluated at regular time points throughout the study. […] A goodness-of-fit plot for the observed and predicted relation between noribogaine plasma levels and ΔΔQTc1 is provided in FIG. 9C.

[2] = target: calf OPRM (Bos taurus, UniProt P79350); conditions: cited from earlier work; for Ki: read-out: Ki
Chain of calf OPRM (P79350 whole entry): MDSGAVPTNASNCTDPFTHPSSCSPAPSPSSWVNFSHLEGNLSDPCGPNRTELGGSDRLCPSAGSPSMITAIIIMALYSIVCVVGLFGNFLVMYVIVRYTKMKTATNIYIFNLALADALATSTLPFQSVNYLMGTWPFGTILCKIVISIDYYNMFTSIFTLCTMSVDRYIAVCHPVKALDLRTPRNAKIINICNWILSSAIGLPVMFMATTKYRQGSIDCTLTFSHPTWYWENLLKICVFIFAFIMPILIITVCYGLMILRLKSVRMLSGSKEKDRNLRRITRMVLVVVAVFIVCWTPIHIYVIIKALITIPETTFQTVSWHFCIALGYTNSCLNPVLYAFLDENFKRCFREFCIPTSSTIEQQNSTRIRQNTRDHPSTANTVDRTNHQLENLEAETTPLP

[3] = target: calf OPRK (Bos taurus, UniProt Q2KIP6); conditions: cited from earlier work
Chain of calf OPRK (Q2KIP6 whole entry): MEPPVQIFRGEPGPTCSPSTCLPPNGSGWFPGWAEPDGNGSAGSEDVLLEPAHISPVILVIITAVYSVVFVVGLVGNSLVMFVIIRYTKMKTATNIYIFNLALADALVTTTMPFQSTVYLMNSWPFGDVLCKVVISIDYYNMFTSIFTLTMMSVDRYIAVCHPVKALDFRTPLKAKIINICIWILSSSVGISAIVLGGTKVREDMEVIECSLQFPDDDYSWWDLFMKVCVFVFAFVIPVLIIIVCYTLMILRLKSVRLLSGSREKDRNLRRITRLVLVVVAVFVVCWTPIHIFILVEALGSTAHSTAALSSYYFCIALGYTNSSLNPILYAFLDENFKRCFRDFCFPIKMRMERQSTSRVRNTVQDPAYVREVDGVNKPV

[4] = target: OPRK (Homo sapiens, UniProt P41145); assay: biochemical; type: binding; design: expressed in transfected cells; host or cells: CHO-K1; conditions: [3H]-U69,593 Binding; This work
Chain of OPRK (P41145 whole entry): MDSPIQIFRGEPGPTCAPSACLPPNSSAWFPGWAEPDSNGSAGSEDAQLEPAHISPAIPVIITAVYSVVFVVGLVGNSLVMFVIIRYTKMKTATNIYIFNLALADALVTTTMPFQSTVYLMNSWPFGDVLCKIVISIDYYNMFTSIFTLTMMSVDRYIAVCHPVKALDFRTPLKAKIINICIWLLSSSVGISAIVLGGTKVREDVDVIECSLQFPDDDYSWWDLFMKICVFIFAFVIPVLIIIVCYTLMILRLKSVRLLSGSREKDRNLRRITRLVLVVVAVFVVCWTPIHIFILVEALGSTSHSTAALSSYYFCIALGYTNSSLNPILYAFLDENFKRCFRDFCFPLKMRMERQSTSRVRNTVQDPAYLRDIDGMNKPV

[5] = Treatment emergent adverse events in opioid-dependent patients, single dose
[6] = target: human OPRM (Homo sapiens, UniProt P35372); assay: biochemical; design: expressed in transfected cells; host or cells: CHO-K1 (cell line provided by Dr. Toll, Torrey Pines Institute); membranes prepared in house
Chain of human OPRM (P35372 whole entry): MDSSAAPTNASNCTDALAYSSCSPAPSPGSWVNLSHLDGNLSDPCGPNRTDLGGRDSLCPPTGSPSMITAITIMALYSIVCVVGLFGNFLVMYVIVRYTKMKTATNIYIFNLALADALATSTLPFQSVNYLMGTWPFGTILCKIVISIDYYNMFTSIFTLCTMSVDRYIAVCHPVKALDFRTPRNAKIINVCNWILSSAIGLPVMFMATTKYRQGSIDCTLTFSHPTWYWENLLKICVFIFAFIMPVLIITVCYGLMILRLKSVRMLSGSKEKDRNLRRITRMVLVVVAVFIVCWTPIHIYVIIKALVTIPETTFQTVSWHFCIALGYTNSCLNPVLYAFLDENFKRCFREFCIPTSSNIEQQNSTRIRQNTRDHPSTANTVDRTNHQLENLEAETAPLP

CC[C@H]1CC2C[C@H]3c4[nH]c5ccc(O)cc5c4CCN(C2)C13 [Noribogaine, noribogaine]
QT interval prolongation (ΔQTcI) [1]: dose-dependent increase in QT interval prolongation | Ki ([2]; calf OPRM): 1520 nM | pKi ([2]; calf receptor, literature): 5.6 | Ki ([2]; calf receptor, literature): 2660 nM | Ki ([3]; calf OPRK): 960 nM | pKi ([3]; calf receptor, literature): 6.0 | pKi [4]: 6.1 | Catheter Site Infection ([5]; 60 mg noribogaine (N = 6)): 0 | Catheter Site Pain ([5]; 60 mg noribogaine (N = 6)): 0 | Catheter Site Related Reaction ([5]; 60 mg noribogaine (N = 6)): 0 | Cellulitis ([5]; 60 mg noribogaine (N = 6)): 0 | Diarrhoea ([5]; 60 mg noribogaine (N = 6)): 0 | Diy Mouth ([5]; 60 mg noribogaine (N = 6)): 0 | Ear and Labyrinth Disorders ([5]; 60 mg noribogaine (N = 6)): 0 | Epistaxis ([5]; 60 mg noribogaine (N = 6)): 0 | Euphoric Mood ([5]; 60 mg noribogaine (N = 6)): 0 | General Disorders and Administration Site Conditions ([5]; 60 mg noribogaine (N = 6)): 0 | Hyperaesthesia ([5]; 60 mg noribogaine (N = 6)): 0 | Infections and Infestations ([5]; 60 mg noribogaine (N = 6)): 0 | Limb Discomfort ([5]; 60 mg noribogaine (N = 6)): 0 | Malaise ([5]; 60 mg noribogaine (N = 6)): 0 | Nausea ([5]; 60 mg noribogaine (N = 6)): 0 | Oropharyngeal Pain ([5]; 60 mg noribogaine (N = 6)): 0 | Pseudoparalysis ([5]; 60 mg noribogaine (N = 6)): 0 | Respiratory, Thoracic and Mediastinal Disorders ([5]; 60 mg noribogaine (N = 6)): 0 | Rhinorrhoea ([5]; 60 mg noribogaine (N = 6)): 0 | Skin Discomfort ([5]; 60 mg noribogaine (N = 6)): 0 | Skin Irritation ([5]; 60 mg noribogaine (N = 6)): 0 | Skin and Subcutaneous Tissue Disorders ([5]; 60 mg noribogaine (N = 6)): 0 | Somnoience ([5]; 60 mg noribogaine (N = 6)): 0 | Tinnitus ([5]; 60 mg noribogaine (N = 6)): 0 | Tremor ([5]; 60 mg noribogaine (N = 6)): 0 | Urinary Tract Infection ([5]; 60 mg noribogaine (N = 6)): 0 | Vomiting ([5]; 60 mg noribogaine (N = 6)): 0 | Back Pain ([5]; 120 mg noribogaine (N = 6)): 0 | Catheter Site Infection ([5]; 120 mg noribogaine (N = 6)): 0 | Catheter Site Related Reaction ([5]; 120 mg noribogaine (N = 6)): 0 | Depressed Mood ([5]; 120 mg noribogaine (N = 6)): 0 | Dry Eye ([5]; 120 mg noribogaine (N = 6)): 0 | Dyspepsia ([5]; 120 mg noribogaine (N = 6)): 0 | Euphoric Mood ([5]; 120 mg noribogaine (N = 6)): 0 | Limb Discomfort ([5]; 120 mg noribogaine (N = 6)): 0 | Malaise ([5]; 120 mg noribogaine (N = 6)): 0 | Musculoskeletal and Connective Tissue Disorders ([5]; 120 mg noribogaine (N = 6)): 0 | Psychiatric Disorders ([5]; 120 mg noribogaine (N = 6)): 0 | Somnoience ([5]; 120 mg noribogaine (N = 6)): 0 | Urinary Tract Infection ([5]; 120 mg noribogaine (N = 6)): 0 | Catheter Site Infection ([5]; 180 mg noribogaine (N = 6)): 0 | Catheter Site Pain ([5]; 180 mg noribogaine (N = 6)): 0 | Depressed Mood ([5]; 180 mg noribogaine (N = 6)): 0 | Diarrhoea ([5]; 180 mg noribogaine (N = 6)): 0 | Dry Eye ([5]; 180 mg noribogaine (N = 6)): 0 | Dyspepsia ([5]; 180 mg noribogaine (N = 6)): 0 | Ear and Labyrinth Disorders ([5]; 180 mg noribogaine (N = 6)): 0 | Epistaxis ([5]; 180 mg noribogaine (N = 6)): 0 | Euphoric Mood ([5]; 180 mg noribogaine (N = 6)): 0 | Hyperaesthesia ([5]; 180 mg noribogaine (N = 6)): 0 | Malaise ([5]; 180 mg noribogaine (N = 6)): 0 | Oropharyngeal Pain ([5]; 180 mg noribogaine (N = 6)): 0 | Pseudoparalysis ([5]; 180 mg noribogaine (N = 6)): 0 | Psychiatric Disorders ([5]; 180 mg noribogaine (N = 6)): 0 | Respiratory, Thoracic and Mediastinal Disorders ([5]; 180 mg noribogaine (N = 6)): 0 | Rhinorrhoea ([5]; 180 mg noribogaine (N = 6)): 0 | Skin Discomfort ([5]; 180 mg noribogaine (N = 6)): 0 | Skin Irritation ([5]; 180 mg noribogaine (N = 6)): 0 | Skin and Subcutaneous Tissue Disorders ([5]; 180 mg noribogaine (N = 6)): 0 | Somnoience ([5]; 180 mg noribogaine (N = 6)): 0 | Tinnitus ([5]; 180 mg noribogaine (N = 6)): 0 | Tremor ([5]; 180 mg noribogaine (N = 6)): 0 | hallucinatory effects ([5]; 60, 120 or 180 mg single dose): no hallucinatory effects | Efficacy (Emax) [6]: 9.4% | Efficacy (inhibition) [6]: −100~ % | e-coupling (pKi-pEC50) [6]: 1.02 | e-coupling (pKi-pKe) [6]: 1.10 | pEC50 [6]: 4.8 | right-shift of EC50 of DAMGO and morphine [6]: ~1 log | Ki ([6]; Ke): 19000 nM and 28000 nM | Emax ([6]; read-out: Efficacy (Emax)): 10%
